From patent publication US20220273676A1, “CHOLECALCIFEROL FOR USE IN THE TREATMENT OF CELIAC DISEASE” (ABIOGEN PHARMA S.P.A., priority 2019, published 2022)

Columns and labels:
[1] = tested on: T-cell marker (CD3); experiment: Immunohistochemistry of CD3 in mucosa of small intestine of NOD mice; assay type: in vivo, mouse; settings: IHC
Experimental: (§1) Small intestine samples were taken from mice belonging to experimental groups 2 (pathology control) and 7 (cholecalciferol 130 μg/kg) of the experiment described in Example 1 and were processed to evaluate by immunohistochemistry the expression of three proteins: the receptor for vitamin D (VDR), the T-cell marker (CD3) which indicates lymphocyte infiltration and the protein of Zonula Occludens 1 or Zonulin-1 (Z0-1) which is usually released in serum and tissue following destruction of the intestinal epithelial barrier, in particular of the intercellular tight junctions (TJs).
(§2) The samples were washed in xylene, hydrated and washed in water with solutions of ethanol and water to scale. The recovery of the antigen was carried out in sodium citrate buffer using the standard “pressure cooker” protocol. Once the antigen recovery was completed, the samples were placed at room temperature for 10 ‘and washed twice for 2’ in PBS tween (phosphate buffer saline with tween). Non-specific sites were blocked with 200 μL of T20 starting block.
(§3) They were then dispensed on each slide, either 200 μL of solution comprising the primary antibody of interest, or 200 μL of the respective negative control. The slides were then left to incubate overnight in a humid chamber with PBS at 4° C.
(§4) After incubation, repeated washes were carried out in wash buffer at room temperature, after which the endogenous peroxidase was blocked with a 0.3% hydrogen peroxide buffer.
(§5) Subsequently, repeated washes were carried out again in wash buffer at room temperature and the secondary antibody was added, which was left to incubate for 1 hour at room temperature.
(§6) Repeated washings were then carried out again in wash buffer at room temperature. Subsequently, the DAB solution (3′,3′-Diaminobenzidine) was added, which was then blocked by washing at room temperature.
(§7) Finally, counterstaining with Meyer's hematoxylin was carried out and the reaction was stopped by washing in water.
(§8) The slides were then mounted with two drops of aqueous mounting medium and allowed to dry.
(§9) Antibody labelling in villi, crypts and goblet cells was evaluated.

[2] = tested on: NOD mice; experiment: Histomorphometric measurement of villus length in small intestine of NOD mice; assay type: in vivo, mouse; settings: for Villus length: celiac NOD mice
From the text: (§10) For the study, the NOD (Non Obese Diabetic) mouse was chosen as an experimental model which, when fed with a standard diet containing gluten, is able to spontaneously develop enteropathy and autoimmune disorders, with alterations of the small intestine similar to those observed. in human celiac disease.
(§11) 103 female NOD mice aged four weeks were then placed in two different enclosure rooms (one for mice intended to follow a standard diet and one for mice intended for a gluten-free diet) and allowed to acclimate for a period of at least seven days.
(§12) They were then randomly assigned to seven different experimental groups. The development of enteropathy was achieved by feeding NOD mice with a standard diet containing gluten and administering gliadin orally with a dosage of 10 μg/kg for ten consecutive days.
(§13) The seven experimental groups are represented in the following table 1.
(§14) At the end of the treatment period the mice were sacrificed. A macroscopic examination was performed and the small intestine was removed from each mouse to be subjected to microscopic examinations.
(§15) In particular, histopathological and histomorphometric examinations were carried out on sections of intestine with a thickness of 5-7 μm placed in paraffin and stained with hematoxylin-eosin.
(§16) Fifteen histomorphometric measurements of the height of the villi were then carried out from each of the five small intestine sections evaluated for each mouse. The results of the microscopic histopathological evaluation are summarized in the following table 2, which contains the four degrees of lesion previously described and the number of animals of each group presenting the various types of lesions.

[3] = tested on: NOD mice; experiment: Histopathological lesion scoring (Marsh) of small intestine in NOD mouse model of celiac disease; assay type: in vivo; settings: for Lesion type 0, number of animals / Lesion type 1, number of animals / Lesion type 2, number of animals / Lesion type 3, number of animals: celiac NOD mice
From the text: as §10, §11, §12, §13, §14, §15
The scoring system described in Marsh et al, Gut 1990 January; 31 (1): 111-4 was used, to allow comparison between groups with different degrees of inflammatory infiltration and type of lesions observed under the microscope, which provides for the following classification: • lesion type 0: normal intestinal mucosa; • lesion type 1 (infiltrative): normal morphology and architecture of the villi, higher number of intraepithelial lymphocytes; • lesion type 2 (hyperplastic): normal morphology and architecture of the villi, higher number of intraepithelial lymphocytes, hyperplasia of the glandular elements; • lesion type 3 ([…]): different degrees of atrophy of the villi with hypertrophy of the glandular crypts, superficial enterocytes with reduced height, higher number of intraepithelial lymphocytes.
as §16

[4] = cited from earlier work
[5] = tested on: receptor for vitamin D (VDR); experiment: Immunohistochemistry of VDR in mucosa of small intestine of NOD mice; assay type: in vivo, mouse; settings: 130 μg/kg vs pathology control, IHC
Experimental: as §1, §2, §3, §4, §5, §6, §7, §8, §9

[6] = tested on: Zonula Occludens 1 or Zonulin-1 (Z0-1); experiment: Immunohistochemistry of ZO-1 in mucosa of small intestine of NOD mice; assay type: in vivo, mouse; settings: 130 μg/kg vs vehicle group, IHC
Experimental: as §1, §2
They were then dispensed on each slide, either 200 μL of solution comprising the primary antibody of interest, or 200 μL of the respective negative control. The slides were then left to incubate overnight in a humid chamber with PBS at 4° C. […]
as §9

[7] = tested on: NOD mice; experiment: Atrophy of the intestinal mucosa, Corazza-Villanacci classification, NOD mice; assay type: in vivo, mouse
Experimental: as §1
The atrophy of the intestinal mucosa was evaluated according to the Corazza-Villanacci classification.

[8] = tested on: tight intercellular junctions (TJs); settings: preliminary studies in vivo and in vitro, Dong et al. 2018; cited from earlier work
[9] = 5 μg/kg/day orally once a day for 12 weeks, n = 15
[10] = 10 μg/kg/day orally once a day for 12 weeks, n = 15
[11] = 20 μg/kg/day orally once a day for 12 weeks, n = 16
[12] = 50 μg/kg/day orally once a day for 12 weeks, n = 16
[13] = 130 μg/kg/day orally once a day for 12 weeks, n = 15

For C=C1CC[C@H](O)C/C1=C/C=C1\CCC[C@]2(C)[C@@H]([C@H](C)CCCC(C)C)CC[C@@H]12 [Cholecalciferol], the CD3 expression ([1]; 130 μg/kg vs pathology control) was “less expressed”, the “CD3 intensity of marking in goblet cells” value ([1]; 130 μg/kg vs pathology control) was “reduction in the intensity of the marking” and the “CD3 signal in goblet cells compared to the control” value ([1]; 130 μg/kg vs pathology control) was “reduction in the signal”. The “CD3 labelling of villi and crypts” value ([1]; 130 μg/kg) was “unlabeled”, the Villus length [2, 9] was 65.7 ×10 μm and the Villus length [2, 10] was 71.2 ×10 μm. The Villus length [2, 11] was 76.1 ×10 μm, the Villus length [2, 12] was 75.0 ×10 μm and the Villus length [2, 13] was 78.8 ×10 μm. For the same compound, the “Relation between increase in the length of the villi and dose administered” value ([2]; 5-130 μg/kg) was “dose-dependent relationship”, the “Villus length compared to untreated celiac controls” value ([2]; all treated groups) was “longer than those of the untreated celiac controls” and the “Lesion type 0, number of animals” value [3, 9] was 0. For the same compound, the “Lesion type 1, number of animals” value [3, 9] was 2, the “Lesion type 2, number of animals” value [3, 9] was 13 and the “Lesion type 3, number of animals” value [3, 9] was 0. For the same compound, the “Lesion type 0, number of animals” value [3, 10] was 0, the “Lesion type 1, number of animals” value [3, 10] was 9 and the “Lesion type 2, number of animals” value [3, 10] was 4. For the same compound, the “Lesion type 3, number of animals” value [3, 10] was 2, the “Lesion type 0, number of animals” value [3, 11] was 0 and the “Lesion type 1, number of animals” value [3, 11] was 7. For the same compound, the “Lesion type 2, number of animals” value [3, 11] was 4, the “Lesion type 3, number of animals” value [3, 11] was 5 and the “Lesion type 0, number of animals” value [3, 12] was 3. For the same compound, the “Lesion type 1, number of animals” value [3, 12] was 3, the “Lesion type 2, number of animals” value [3, 12] was 9 and the “Lesion type 3, number of animals” value [3, 12] was 1. For the same compound, the “Lesion type 0, number of animals” value [3, 13] was 3, the “Lesion type 1, number of animals” value [3, 13] was 3 and the “Lesion type 2, number of animals” value [3, 13] was 6. For the same compound, the “Lesion type 3, number of animals” value [3, 13] was 3, the “General depiction of the lesions compared to the untreated celiac mice” value ([3]; all tested doses (5-130 μg/kg)) was “overall improvement” and the “General depiction of the lesions compared to the untreated celiac mice” value ([3]; highest doses, repeated administrations of 50 and 130 μg/kg) was “significantly improved”. The “blood half-life (T1/2)” value ([4]; estimated) was 19 to 25 h, the functional half-life ([4]; related to slow release by adipose tissue) was “several weeks” and the “VDR marking in crypts” value [5] was “the same phenomenon was observed in the crypts”. The “VDR marking in villi” value [5] was “greater expression of VDR”, the “VDR, intensity of marking of goblet cells” value [5] was “greater intensity of marking” and the “VDR, number of marked goblet cells” value [5] was “smaller number of marked cells”. The “ZO-1 marking of villi and crypts” value [6] was “more marked in the group treated with the vehicle”, the “Atrophy of the villi” value ([7]; 130 μg/kg vs pathology control, ZO-1 slides) was “less marked” and the “Atrophy in the villi compared to vehicle treated control” value ([7]; 130 μg/kg, VDR slides) was “reduction in atrophy”.
For C=C1/C(=C\C=C2/CCC[C@]3(C)[C@@H]([C@H](C)CCCC(C)(C)O)CC[C@@H]23)C[C@@H](O)C[C@@H]1O [calcitriol], the “Effect on the intestinal mucosal barrier towards PT-G” value [8] is listed as “protective action against TJs”.
